Key:
[1] = xn = mol fraction of the nth substance listed; details: 101 kPa, Liquid; for mass density: Vibrating tube method
[2] = refractive index (Na D-line) (dimensionless); xn = mol fraction of the nth substance listed; details: 101 kPa, Liquid, Standard Abbe refractometry

CCn1cc[n+](C)c1.NCC(=O)[O-] [1-ethyl-3-methylimidazolium ammonioacetate] + CCn1cc[n+](C)c1.N#C[C-](C#N)C#N
viscosity [mPa·s], [1], Stabinger viscometer
Details | x2 = 0 | x2 = 0.2498 | x2 = 0.5001 | x2 = 0.7501
293.15 K | 240.18 | 94.03 | 53.98 | 29.05
298.15 K | 171.97 | 70.85 | 42.14 | 23.45
303.15 K | 126.19 | 54.7 | 33.55 | 19.43
308.15 K | 95.04 | 43.19 | 27.19 | 16.35
313.15 K | 73.5 | 34.81 | 22.25 | 13.9
318.15 K | 57.66 | 28.43 | 18.69 | 12.02
323.15 K | 46.21 | 23.59 | 15.89 | 10.47
328.15 K | 37.66 | 19.87 | 13.84 | 9.21
333.15 K | 31.24 | 16.92 | 11.88 | 8.12
338.15 K | 26.08 | 14.58 | 10.47 | 7.29
343.15 K | 22.11 | 12.67 | 9.233 | 6.55
348.15 K | 18.95 | 11.1 | 8.191 | 5.92
353.15 K | 16.45 | 9.77 | 7.189 | 5.35

Details | mass density, x2 = 0 [kg/m3] | mass density, x2 = 0.2498 [kg/m3] | mass density, x2 = 0.5001 [kg/m3] | mass density, x2 = 0.7501 [kg/m3] | refractive index, x2 = 0 | refractive index, x2 = 0.2498 | refractive index, x2 = 0.5001 | refractive index, x2 = 0.7501
[1], 293.15 K | 1164.3 | 1140.2 | 1118.4 | 1101.2 | – | – | – | –
[1], 298.15 K | 1161.2 | 1136.9 | 1115 | 1097.8 | – | – | – | –
[1], 303.15 K | 1158.1 | 1133.7 | 1111.7 | 1094.4 | – | – | – | –
[1], 308.15 K | 1155 | 1130.5 | 1108.4 | 1091 | – | – | – | –
[1], 313.15 K | 1152 | 1127.3 | 1105.2 | 1087.7 | – | – | – | –
[1], 318.15 K | 1149 | 1124.3 | 1102.1 | 1084.4 | – | – | – | –
[1], 323.15 K | 1146 | 1121.1 | 1098.9 | 1081 | – | – | – | –
[1], 328.15 K | 1143 | 1118 | 1095.7 | 1077.7 | – | – | – | –
[1], 333.15 K | 1139.9 | 1114.8 | 1092.5 | 1074.5 | – | – | – | –
[1], 338.15 K | 1136.9 | 1111.7 | 1089.3 | 1071.2 | – | – | – | –
[1], 343.15 K | 1133.8 | 1108.6 | 1086.1 | 1068 | – | – | – | –
[1], 348.15 K | 1130.7 | 1105.5 | 1082.9 | 1064.7 | – | – | – | –
[1], 353.15 K | 1127.4 | 1102.4 | 1079.7 | 1061.5 | – | – | – | –
[2], 293.15 K | – | – | – | – | 1.52134 | 1.52032 | 1.51815 | 1.51562
[2], 298.15 K | – | – | – | – | 1.51997 | 1.51892 | 1.51656 | 1.51399
[2], 303.15 K | – | – | – | – | 1.5186 | 1.51743 | 1.51505 | 1.51238
[2], 308.15 K | – | – | – | – | 1.51724 | 1.51596 | 1.51355 | 1.5108
[2], 313.15 K | – | – | – | – | 1.51585 | 1.51457 | 1.51205 | 1.50922
[2], 318.15 K | – | – | – | – | 1.5145 | 1.51315 | 1.51057 | 1.50764
[2], 323.15 K | – | – | – | – | 1.51313 | 1.51173 | 1.50908 | 1.50609
[2], 328.15 K | – | – | – | – | 1.51179 | 1.51031 | 1.5076 | 1.50449
[2], 333.15 K | – | – | – | – | 1.51041 | 1.5089 | 1.50613 | 1.50295
[2], 338.15 K | – | – | – | – | 1.50904 | 1.50751 | 1.50462 | 1.50143
[2], 343.15 K | – | – | – | – | 1.50769 | 1.50614 | 1.50315 | 1.49987
[2], 348.15 K | – | – | – | – | 1.50637 | 1.50472 | 1.5017 | 1.49834
[2], 353.15 K | – | – | – | – | 1.50495 | 1.50334 | 1.50021 | 1.49682

CC[n+]1ccn(C)c1.N[C@@H](CO)C(=O)[O-] [3-ethyl-1-methyl-1H-imidazolium L-serinate] + CCn1cc[n+](C)c1.N#C[C-](C#N)C#N
viscosity [mPa·s], [1], Stabinger Viscometer
Details | x2 = 0 | x2 = 0.2502 | x2 = 0.5005 | x2 = 0.7497
293.15 K | 3796.8 | 586.84 | 168.52 | 42.01
298.15 K | 2235.5 | 384.17 | 120.68 | 33.37
303.15 K | 1376.2 | 261.07 | 88.95 | 26.98
308.15 K | 882.82 | 183.69 | 67.28 | 22.2
313.15 K | 588.27 | 133.41 | 52.28 | 18.36
318.15 K | 405.12 | 98.94 | 41.25 | 15.72
323.15 K | 287.6 | 75.39 | 33.28 | 13.48
328.15 K | 209.91 | 58.75 | 27.29 | 11.68
333.15 K | 157.29 | 46.9 | 22.78 | 10.07
338.15 K | 119.86 | 37.79 | 19.18 | 9.03
343.15 K | 93.36 | 31.01 | 16.37 | 8.03
348.15 K | 74.03 | 25.75 | 14.12 | 7.19
353.15 K | 59.91 | 21.14 | 12.31 | 6.36

Details | mass density, x2 = 0 [kg/m3] | mass density, x2 = 0.2502 [kg/m3] | mass density, x2 = 0.5005 [kg/m3] | mass density, x2 = 0.7497 [kg/m3] | refractive index, x2 = 0 | refractive index, x2 = 0.2502 | refractive index, x2 = 0.5005 | refractive index, x2 = 0.7497
[1], 293.15 K | 1206.8 | 1177.2 | 1141.8 | 1112.9 | – | – | – | –
[1], 298.15 K | 1203.7 | 1173.6 | 1138.4 | 1109.3 | – | – | – | –
[1], 303.15 K | 1200.5 | 1170.1 | 1135 | 1105.8 | – | – | – | –
[1], 308.15 K | 1197.3 | 1166.8 | 1131.7 | 1102.3 | – | – | – | –
[1], 313.15 K | 1194 | 1163.5 | 1128.4 | 1098.9 | – | – | – | –
[1], 318.15 K | 1190.9 | 1160.5 | 1125.1 | 1095.6 | – | – | – | –
[1], 323.15 K | 1187.8 | 1157.3 | 1121.8 | 1092.2 | – | – | – | –
[1], 328.15 K | 1184.7 | 1154 | 1118.5 | 1088.9 | – | – | – | –
[1], 333.15 K | 1181.7 | 1150.8 | 1115.1 | 1085.6 | – | – | – | –
[1], 338.15 K | 1178.7 | 1147.6 | 1111.9 | 1082.2 | – | – | – | –
[1], 343.15 K | 1175.7 | 1144.4 | 1108.6 | 1078.9 | – | – | – | –
[1], 348.15 K | 1172.8 | 1141.2 | 1105.2 | 1075.7 | – | – | – | –
[1], 353.15 K | 1169.7 | 1138 | 1101.8 | 1072.3 | – | – | – | –
[2], 293.15 K | – | – | – | – | 1.52699 | 1.52075 | 1.51865 | 1.51552
[2], 298.15 K | – | – | – | – | 1.52565 | 1.51929 | 1.51718 | 1.5139
[2], 303.15 K | – | – | – | – | 1.52429 | 1.51784 | 1.51563 | 1.51228
[2], 308.15 K | – | – | – | – | 1.52294 | 1.51636 | 1.51409 | 1.51064
[2], 313.15 K | – | – | – | – | 1.52159 | 1.51489 | 1.51254 | 1.50899
[2], 318.15 K | – | – | – | – | 1.52022 | 1.51343 | 1.51099 | 1.50736
[2], 323.15 K | – | – | – | – | 1.51887 | 1.51199 | 1.50943 | 1.50574
[2], 328.15 K | – | – | – | – | 1.51755 | 1.51051 | 1.50784 | 1.50408
[2], 333.15 K | – | – | – | – | 1.5162 | 1.50902 | 1.50632 | 1.50253
[2], 338.15 K | – | – | – | – | 1.51486 | 1.50755 | 1.50475 | 1.50093
[2], 343.15 K | – | – | – | – | 1.51353 | 1.50611 | 1.50324 | 1.49932
[2], 348.15 K | – | – | – | – | 1.5122 | 1.50459 | 1.50173 | 1.49774
[2], 353.15 K | – | – | – | – | 1.51084 | 1.50318 | 1.50018 | 1.49615

Source: the NIST ThermoML archive (doi:10.1021/acs.jced.5b00242)
